Results from article PMC8805583, “Discovery of Herbacetin as a Novel SGK1 Inhibitor to Alleviate Myocardial Hypertrophy” (Advanced Science, 2021).

Tests used:
ISO mice = assay: ISO-induced cardiac hypertrophy in mice; assay type: in vivo
Description: Finally, we assessed the cardioprotective effect of HBT in mice infused with the hypertrophic agonist isoproterenol (ISO). Mice were challenged with ISO for 21 days via subcutaneous injection and then were administered with 10 mg kg^−1 of HBT once per day until the mice were sacrificed (Figure 7A).
For isoproterenol (ISO)‐mediated cardiac hypertrophy, mice were randomly divided into 3 groups, control group (Ctrl), ISO group and ISO plus HBT group (HBT), 5 mg kg^−1 day^−1 ISO was given for 21 days by subcutaneous injection. The control mice were treated with 1% DMSO‐vehicle. At the same time, male C57BL/6 mice in HBT group were intraperitoneally injected with 10 mg kg^−1 d^−1 HBT diluted with a solution containing 1% DMSO and 99% saline. Echocardiography was performed on conscious mice using a Vevo 2100 system. M‐mode images of the left ventricular short axis were captured. After echocardiography evaluation, the mice were anesthetized via intraperitoneal injection of 240 mg kg^−1 pentobarbital sodium and were euthanized by excising the heart rapidly.

[1] = tested on: SGK1(S422D)-transfected primary cardiomyocytes; assay: S422D SGK1-transfected primary cardiac myocytes (western blot, confocal microscopy); assay type: cell-based, rat
Description: Figure 5 HBT blocks induction of cardiac hypertrophic responses and the SGK1/FoxO1 signaling pathway. A) Cardiomyocytes were treated with 50 µmol PE in the presence or absence of Ext.R (50 µg mL^−1) or HBT (50 µmol) for 48 h. Cardiomyocytes were identified by cytoskeleton staining through the binding of phalloidin to F‐actin (green). Images were acquired using an ImageXpress Micro Confocal High‐Content Imaging System (Molecular Devices), with a 40 × PlanFluor objective. Relative cell area was quantified by the analysis module of […] High‐Content Image and Analysis Software (Molecular Devices). Control group (Ctrl), PE group, PE plus Ext.R group (Ext.R), and PE plus HBT group (HBT), n = 3 independent experiments, Scale bar, 50 µm. B,C) Quantification of relative ANP and BNP in cardiomyocytes treated with Ext.R or HBT, n = 3 independent experiments. D) Western blot analysis of related proteins in PE‐treated cardiomyocytes, n = 3–4 independent experiments. E) Co‐IP and western blot analysis of SGK1‐FoxO1 interaction in cardiomyocytes, n = 3 independent experiments. F) Western blot analysis of related proteins in nontransfected (control adenovirus) and in ^S422DSGK1‐transfected primary cardiac myocytes treated with DMSO as solvent control (^S422DSGK1‐transf. group) or HBT (50 µmol, ^S422DSGK1‐transf.+HBT group), n = 3 independent experiments. G) Confocal microscopy of nuclear translocation of FoxO1 in nontransfected (control adenovirus), ^S422DSGK1‐transfected cardiomyocytes treated with HBT (50 µmol) or DMSO as solvent control. Green signal represents FoxO1 and white arrow represents the translocation of FoxO1 to nuclei, n = 3 independent experiments, Scale bar, 25 µm. All data were analyzed using one‐way ANOVA and data were expressed as means ± SD, ##p < 0.01 versus Ctrl group, *p < 0.05, **p < 0.01 versus PE group or ^S422DSGK1‐transf. group.
In the present study, we studied HBT's effect on protein binding between SGK1 and FoxO1 by coimmunoprecipitation (Figure 5E). […] Nevertheless, as previously reported,^[ [30] ^] […] Supportively, after transfection with the SGK1(S422D) plasmid, we consistently detected increased cytoplasmic signal of FoxO1 compared to nontransfected cells in which the majority of FoxO1 signal was distributed in the nucleus.
SGK1 mutant plasmids and adenovirus were constructed by Vigene Bioscience. All the transfection assays were performed using Lipofectamine 2000 according to the manufacturer's protocol. Adenovirus (Ad‐^S422DSGK1) was diluted in DMEM and administered at a dose of 100 MOI in primary cardiomyocytes.

In the case of `O=c1c(O)c(-c2ccc(O)cc2)oc2c(O)c(O)cc(O)c12` [HBT, herbacetin], the toxicity (ISO mice; 10 mg kg−1 d−1 for 21 days) is reported as “without causing any significant toxicity”, the “left ventricular ejection fraction (EF%) and fraction shortening (FS%)” value (ISO mice; ISO 5 mg kg−1 d−1 21 days, HBT 10 mg kg−1 d−1 intraperitoneally) is reported as “increased” and the “decreased Bcl-2 and MnSOD levels” value (ISO mice; ISO mice) is reported as “almost completely reversed”. The “serum NT-proBNP” value (ISO mice; ISO mice, ELISA) was “decreased level”, the “heart weight/tibial length (HW/TL)” value (ISO mice; ISO mice, HBT 10 mg kg−1) was “reduce the HW/TL level” and the “left ventricular volume (LV Vol;d and LV Vol;s)” value (ISO mice; ISO mice, HBT 10 mg kg−1) was “decreased”. The “accumulation of collagen fibrosis” value (ISO mice; ISO mice, Masson's staining) was “reduced”, the “expression of p-SGK1, α-SMA and Col-3” value (ISO mice; ISO mice, western blot) was “reduced expression” and the “FoxO1 phosphorylation, STIM1 and Orai1 protein expression in heart tissue” value (ISO mice; ISO mouse model) was “significantly decreased”. For the same molecule, the “level of HO-1 and Nrf2 in heart tissue” value (ISO mice; ISO mouse model) was “increased”, the “expression of STIM1” value ([1]; HBT 50 µmol) was “moderately inhibited” and the FoxO1 phosphorylation ([1]; SGK1(S422D) expression, HBT 50 µmol) was “reverse the alternation”. The FoxO1 subcellular localization ([1]; SGK1(S422D) transfection, HBT 50 µmol, confocal microscopy) was “restrain FoxO1 in the nucleus”, the “level of Orai1” value ([1]; constitutively expressed SGK1, HBT 50 µmol) was “significantly inhibited” and the “phosphorylation of NDRG1” value ([1]; continuously-activated form of SGK1, HBT 50 μmol) was “reduce the phosphorylation”.
